The experiment deals with IDH1 R132H (Homo sapiens (Human), UniProt O75874, R132H). Put plainly: In vitro assay for IDH1m (R132H) inhibitors, NADPH depletion with resazurin/resorufin detection. It is filed as biochemical. The settings on record: IDH1 R132H enzyme, 50 minutes at room temperature; read-out: IDH R132H IC50. Background: Alamar Blue is a resazurin reagent that responds to reducing activity.
Sequence of IDH1 R132H (O75874 whole entry R132H): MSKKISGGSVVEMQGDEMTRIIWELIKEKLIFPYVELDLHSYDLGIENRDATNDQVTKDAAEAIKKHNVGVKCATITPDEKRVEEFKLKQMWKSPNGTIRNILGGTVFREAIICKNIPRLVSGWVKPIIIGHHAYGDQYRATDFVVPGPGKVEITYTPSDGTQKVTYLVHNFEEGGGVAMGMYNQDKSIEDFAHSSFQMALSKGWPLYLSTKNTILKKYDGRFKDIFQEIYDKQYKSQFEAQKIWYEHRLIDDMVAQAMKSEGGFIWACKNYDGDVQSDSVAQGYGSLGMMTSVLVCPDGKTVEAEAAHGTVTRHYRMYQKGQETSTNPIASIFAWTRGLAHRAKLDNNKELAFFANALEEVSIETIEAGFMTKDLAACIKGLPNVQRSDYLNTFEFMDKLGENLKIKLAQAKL
The term IC50 denotes the concentration needed to halve the response being measured. As for `Cc1ccc(NC(=O)Nc2cccc(C(F)(F)F)c2)cc1S(=O)(=O)Nc1ccc(-c2nn[nH]n2)cc1` [Compound 322], the IC50 fell in the range of 1 to 10 µM.

With `Cc1ccc(NC(=O)Nc2cccc(C(F)(F)F)c2)cc1S(=O)(=O)N1CCNCC1` [Compound 323], the IC50 lay in the range of 1 to 10 µM.

On to `CCOC(=O)COc1ccc(NS(=O)(=O)c2cc(NC(=O)Nc3ccc(C(F)(F)F)cc3)ccc2C)cc1` [Compound 325], for which the IC50 is 1 to 10 µM.

Turning to `Cc1ccc(NC(=O)Nc2ccc(C(F)(F)F)cc2)cc1S(=O)(=O)Nc1ccc(OCC(=O)O)cc1` [Compound 326], the IC50 lay within 1 to 10 µM.

As for `Cc1ccc(NC(=O)Nc2ccc(C(F)(F)F)cc2)cc1S(=O)(=O)Nc1ccc(OS(C)(=O)=O)cc1` [Compound 327], the IC50 is 1 to 10 µM.

As to `CCOC(=O)C(C)Oc1ccc(NS(=O)(=O)c2cc(NC(=O)Nc3ccc(C(F)(F)F)cc3)ccc2C)cc1` (stereo not drawn) [Compound 328], the IC50 was in the range of 1 to 10 µM.

Regarding `CC(=O)Nc1ccc(NS(=O)(=O)c2cc(NC(=O)Nc3ccc(C(F)(F)F)cc3)ccc2C)cc1` [Compound 329], the IC50 lay within 1 to 10 µM.

Regarding `CCOC(=O)CNc1ccc(NS(=O)(=O)c2cc(NC(=O)Nc3ccc(C(F)(F)F)cc3)ccc2C)cc1` [Compound 330], the IC50 was 1 to 10 µM.

For `Cc1ccc(NC(=O)Nc2ccc(C(F)(F)F)cc2)cc1S(=O)(=O)Nc1ccc(S(C)(=O)=O)cc1` [Compound 331], the IC50 lay in the range of 1 to 10 µM.

On to `Cc1ccc(NC(=O)Nc2ccc(C(F)(F)F)cc2)cc1S(=O)(=O)Nc1cccc(CCc2ccccc2)c1` [Compound 332], for which the IC50 fell in the range of 1 to 10 µM.

With `CCc1ccc(NC(=O)Nc2cccc(C(F)(F)F)c2)cc1S(=O)(=O)Nc1ccc(Cl)cc1` [Compound 333], the IC50 was 1 to 10 µM.

In the case of `Cc1ccc(NC(=O)Nc2cccc(S(=O)(=O)Nc3ccccc3)c2)cc1S(=O)(=O)Nc1ccc(Cl)cc1` [Compound 334], the IC50 was 1 to 10 µM.

With `Cc1ccc(NC(=O)Nc2cccc(S(=O)(=O)Nc3ccc(Cl)cc3)c2)cc1S(=O)(=O)Nc1ccccc1` [Compound 335], the IC50 is 1 to 10 µM.

Regarding `Cc1ccc(NC(=O)Nc2ccc(C)c(S(=O)(=O)Nc3ccc(Cl)cc3)c2)cc1S(=O)(=O)Nc1ccc(Cl)cc1` [Compound 336], the IC50 is 1 to 10 µM.

Regarding `O=C(Nc1cccc(C(F)(F)F)c1)Nc1cc(S(=O)(=O)Nc2ccccc2)ccc1-c1ccsc1` [Compound 351, N-phenyl-4-(thiophen-3-yl)-3-(3-(3-(trifluoromethyl)phenyl)ureido)benzenesulfonamide], the IC50 is 1 to 10 µM.

`Cc1ccc(NC(=O)Nc2cccc(C(F)(F)F)c2)cc1S(=O)(=O)Nc1cccc(O)c1` [compound 303]: the IC50 was in the range of 1 to 10 µM.

Consider “N-(1H-benzo[d]imidazol-7-yl)-2-methyl-5-(3-(3-(trifluoromethyl)phenyl)ureido)benzenesulfonamide [Compound 319]”, for which the IC50 was in the range of 1 to 10 µM.

For “N-(1H-indol-7-yl)-2-methyl-5-(3-(3-(trifluoromethyl)phenyl)ureido)benzenesulfonamide [Compound 317]”, the IC50 lay in the range of 1 to 10 µM.
